Test results reported in patent publication US6258811A, “Methods for preventing, inhibiting or treating graft rejection reactions in graft-versus-host disease (GVHD) and organ transplantation” (Eisai Co., Ltd., priority 1996, dated 2001).

Experiments:
RAR-β [1] = molecular target: T1, RAR-β (Homo sapiens, UniProt P10826); assay: RAR-mediated transcriptional promotion activity, RAR-β; format: cell-based; details: ED30 of all-trans-retinoic acid taken as 1; 3 μM all-trans-retinoic acid = 100%
T1 sequence (P10826 1-455): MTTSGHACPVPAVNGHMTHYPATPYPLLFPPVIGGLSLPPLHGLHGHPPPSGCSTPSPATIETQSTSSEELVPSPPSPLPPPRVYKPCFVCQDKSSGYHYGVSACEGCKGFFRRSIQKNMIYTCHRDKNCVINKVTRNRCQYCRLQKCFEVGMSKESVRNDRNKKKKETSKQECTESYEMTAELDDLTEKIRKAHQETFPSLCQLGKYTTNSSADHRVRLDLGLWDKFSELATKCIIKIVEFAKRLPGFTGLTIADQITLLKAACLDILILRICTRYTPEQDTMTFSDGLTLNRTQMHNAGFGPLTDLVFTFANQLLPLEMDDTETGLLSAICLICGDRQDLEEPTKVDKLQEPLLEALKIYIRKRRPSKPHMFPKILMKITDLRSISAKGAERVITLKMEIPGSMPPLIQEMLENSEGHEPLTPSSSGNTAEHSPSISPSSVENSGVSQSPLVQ
Excerpt: (§1) Retinoic acid receptor (RAR) binding assay and RAR-mediated transcriptional promotion activity of compound represented by formula (I): […]

RAR-α = molecular target: T2, RAR-α (Homo sapiens, UniProt P10276); assay: RAR-mediated transcriptional promotion activity, RAR-α; format: cell-based; details: ED30 of all-trans-retinoic acid taken as 1; 3 μM all-trans-retinoic acid = 100%
T2 sequence (P10276 1-462): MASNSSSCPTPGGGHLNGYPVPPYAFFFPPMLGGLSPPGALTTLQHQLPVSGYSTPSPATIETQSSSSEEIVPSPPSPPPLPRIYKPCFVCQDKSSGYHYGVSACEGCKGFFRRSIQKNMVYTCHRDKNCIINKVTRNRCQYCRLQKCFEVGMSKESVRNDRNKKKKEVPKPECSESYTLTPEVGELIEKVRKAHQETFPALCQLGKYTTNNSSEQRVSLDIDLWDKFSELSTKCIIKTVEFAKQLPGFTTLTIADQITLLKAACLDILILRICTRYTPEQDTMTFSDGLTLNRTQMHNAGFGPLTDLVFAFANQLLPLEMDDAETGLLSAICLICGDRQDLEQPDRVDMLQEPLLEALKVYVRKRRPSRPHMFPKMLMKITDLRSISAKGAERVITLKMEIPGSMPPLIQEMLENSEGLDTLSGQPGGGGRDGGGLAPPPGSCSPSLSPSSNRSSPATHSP
Excerpt: as §1

RAR-γ = molecular target: T3, RAR-γ (Homo sapiens, UniProt P13631); assay: RAR-mediated transcriptional promotion activity, RAR-γ; format: cell-based; details: ED30 of all-trans-retinoic acid taken as 1; 3 μM all-trans-retinoic acid = 100%
T3 sequence (P13631 1-454): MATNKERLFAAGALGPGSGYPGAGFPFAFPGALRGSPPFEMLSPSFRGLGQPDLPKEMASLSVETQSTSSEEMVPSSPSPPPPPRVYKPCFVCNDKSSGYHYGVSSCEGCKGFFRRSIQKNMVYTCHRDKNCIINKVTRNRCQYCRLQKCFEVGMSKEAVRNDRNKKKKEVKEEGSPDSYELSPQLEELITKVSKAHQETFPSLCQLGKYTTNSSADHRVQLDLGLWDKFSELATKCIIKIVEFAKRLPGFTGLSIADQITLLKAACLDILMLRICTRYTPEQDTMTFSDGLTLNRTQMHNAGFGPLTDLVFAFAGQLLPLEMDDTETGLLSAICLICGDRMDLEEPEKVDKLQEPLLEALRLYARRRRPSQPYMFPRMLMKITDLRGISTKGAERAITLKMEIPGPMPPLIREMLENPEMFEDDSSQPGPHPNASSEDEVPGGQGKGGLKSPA
Excerpt: as §1

rat adjuvant arthritis = details: Science 221, 756, 1983; cited from earlier work
patients = details: background; cited from earlier work
[2] = system: serum antiDNA antibody titer (IgG class); assay: Chronic GVHD model: serum antiDNA antibody titer (ELISA); format: in vivo, mice (BDF1 hosts, DBA/2 donors); details: oral, once a day, two weeks after cell transfer
Excerpt: (§2) A graft-versus-host disease (GVHD) model experiment was effected in accordance with the method reported by Durei et al. (J. Clin. Invest., 94, 1333 1994.).
(§3) As the indication of an acute GVHD model (1), use was made of the cytotoxic T cell activity of a donor on a host. As the indication of a chronic GVHD model (2), use was made of the blood antiDNA antibody titer.
In the transplantation, BDF1 mice (H-2b/d) and DBA/2 mice (H-2d) were employed respectively as the hosts and donors. 5×10^7 /mouse of donors' spleen cells were transferred into the hosts via the tail vein. 4-{2-[5-(4,7-Dimethylbenzofuran-2-yl)pyrrolyl]}benzoic acid was dissolved in a 0.5% aqueous solution of methylcellulose and then orally administered to the hosts once a day from the first day of the cell transfer to the day before the blood sampling. The 0.5% aqueous solution of methylcellulose alone was similarly administered to the control group. Two weeks after the cell transfer, the blood of each host animal was sampled and the serum antiDNA antibody titer (IgG class) was measured by the ELISA method.

P-815(H-2d) = assay: Acute GVHD model: cytotoxic T cell activity of donor on host; format: in vivo, mice (BDF1 hosts, C57BL/6N donors); details: oral, once a day, 12 to 13 days after cell transfer
Excerpt: as §2, §3
In the transplantation, BDF1 mice (H-2b/d) and C57BL/6N mice (H-2b) were employed respectively as the hosts and donors. 5×10^7 /mouse of donors' spleen cells were transferred into the hosts via the tail vein. 4-{2-[5-(4,7-Dimethylbenzofuran-2-yl)pyrrolyl]}benzoic acid (compound A) was suspended in a 0.5% aqueous solution of methylcellulose and then orally administered to the hosts once a day from the first day of the cell transfer to the day before the measurement of the cytotoxic T cell activity. The 0.5% aqueous solution of methylcellulose alone was similarly administered to the control group. 12 to 13 days after the cell transfer, the spleen of each host animal was taken out and a suspension of the spleen cells to be used as effector cells was prepared. As the target cells, use was made of P-815(H-2d) which were cultured together with the effector cells for 4 hours. The cytotoxicity (%) was expressed as the percentage of ^51 Cr liberated into the culture supernatant during this culture time to the total radioactivity.

RAR-β [3] = molecular target: T1, RAR-β; assay: Receptor binding assay, RAR-β
Excerpt: as §1

chronic GVHD = details: cyclosporin A and prednisolone, bone marrow transplantation patients; cited from earlier work
immune system = details: background; cited from earlier work

SMILES | Transcriptional promotion activity, Relative ED30, RAR-β (RAR-β [1]) | Transcriptional promotion activity, Relative ED30, RAR-α (RAR-α) | Transcriptional promotion activity, Relative ED30, RAR-γ (RAR-γ) | further results
O=C(O)c1ccc(-c2ccc(-c3cc4c(F)ccc(Cl)c4o3)[nH]2)cc1 | 91 | 0.33 | 790 | –
O=C(O)c1ccc(-c2ccc(-c3cc4c(C(F)(F)F)ccc(F)c4o3)[nH]2)cc1 | 8.1 | 0.33 | 95 | –
Cc1ccc(C)c2c(F)c(-c3ccc(-c4ccc(C(=O)O)cc4)[nH]3)oc12 | 2.8 | 0.39 | 31 | –
CCc1ccc(C)c2cc(-c3ccc(-c4ccc(C(=O)O)cc4)[nH]3)oc12 | 24 | 0.26 | 120 | –
CC1(C)CCC(C)(C)c2nc(-c3ccc(-c4ccc(C(=O)O)cc4)[nH]3)cnc21 | 1.4 | 0.21 | 19 | –
CC1=C(/C=C/C(C)=C/C=C/C(C)=C\C(=O)O)C(C)(C)CCC1 [13-cis-retinoic acid] | – | – | – | secondary inflammation in rat adjuvant arthritis (rat adjuvant arthritis): significantly suppressed
Cn1cnc([N+](=O)[O-])c1Sc1ncnc2nc[nH]c12 [azathioprine] | – | – | – | side effects (patients): bone marrow depression, hepatic disorder, pancreatitis, digestive tract symptoms, cardiopalmus and respiratory disorder
Cc1ccc(C)c2oc(-c3ccc(-c4ccc(C(=O)O)cc4)[nH]3)cc12 [compound A, 4-{2-[5-(4,7-Dimethylbenzofuran-2-yl)pyrrolyl]}benzoic acid] | – | – | – | minimal effective dose ([2]; Mus musculus, 336 h, read-out: dose from which serum antiDNA antibody titer was inhibited dose-dependently): ≥ 0.3 mg/kg; serum antiDNA antibody titer [2]: strongly inhibited the serum antiDNA antibody titer dose-dependently; minimal effective dose (P-815(H-2d); Mus musculus, P815, read-out: dose from which induction of the cytotoxic T cell activity was inhibited dose-dependently): ≥ 0.1 mg/kg; induction of the cytotoxic T cell activity (P-815(H-2d)): strongly inhibited the induction of the cytotoxic T cell activity dose-dependently
O=C(O)c1ccc(-c2ccc(-c3cc4c(Cl)ccc(Cl)c4o3)[nH]2)cc1 [drawing 8] | – | – | – | IC50 (RAR-β [3]): 500 nM
Cc1ccc(C)c2oc(-c3ccc(-c4ccc(C(=O)O)cc4)[nH]3)cc12 [drawing 14] | 13 | 0.4 | 191 | –
O=C(O)c1ccc(-c2ccc(-c3cc4c(Cl)ccc(Cl)c4o3)[nH]2)cc1 [drawing 15] | 160 | 1.0 | 1400 | –
CN(Cc1cnc2nc(N)nc(N)c2n1)c1ccc(C(=O)N[C@@H](CCC(=O)O)C(=O)O)cc1 [methotrexate] | – | – | – | side effects (patients): bone marrow depression, hepatic/renal function disorder, mucosal disorder, psychoneurosis, interstitial pneumonia, pulmonary fibrosis, etc.
C[C@]12C=CC(=O)C=C1CC[C@@H]1[C@@H]2[C@@H](O)C[C@@]2(C)[C@H]1CC[C@]2(O)C(=O)CO [prednisolone] | – | – | – | effect on chronic GVHD (chronic GVHD): no satisfactory effect; side effects (patients): induced infectious diseases, peptic ulcer, etc.
CC1=C(/C=C/C(C)=C/C=C/C(C)=C/C(=O)O)C(C)(C)CCC1 [retinoic acid] | – | – | – | effect on the immune system (immune system): suppressive effect on the immune system
C=CC[C@@H]1/C=C(\C)C[C@H](C)C[C@H](OC)[C@H]2O[C@@](O)(C(=O)C(=O)N3CCCC[C@H]3C(=O)O[C@H](/C(C)=C/[C@@H]3CC[C@@H](O)[C@H](OC)C3)[C@H](C)[C@@H](O)CC1=O)[C@H](C)C[C@@H]2OC [tacrolimus (FK 506), tacrolimus] | – | – | – | side effects (patients): renal function disorder, shock, elevation of blood pressure, heart failure, pancreatitis,hemolytic-uremic syndrome, thrombotic thrombopenia, purpura and hyperglycemia
